Experimental findings from patent publication KR20230047805A, “알기나제 유래 펩타이드를 포함하는 심혈관 질환 예방 또는 치료용 조성물” (강원대학교산학협력단, priority 2021, dated 2023) are described below.

The target of assay [1] is T1, p32 단백질 (Homo sapiens, UniProt Q07021).
T1 construct: 펩타이드를 처리한 HUVECs을 1X SDS sample buffer로 lysis한 뒤; endogenous in cells; host or cells: HUVECs
T1 sequence (Q07021 74-282): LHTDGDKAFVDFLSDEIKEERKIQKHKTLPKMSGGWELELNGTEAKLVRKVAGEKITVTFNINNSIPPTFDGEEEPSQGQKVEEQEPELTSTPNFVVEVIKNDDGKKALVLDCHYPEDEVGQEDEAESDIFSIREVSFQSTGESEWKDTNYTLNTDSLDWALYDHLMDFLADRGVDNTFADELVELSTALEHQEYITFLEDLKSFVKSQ
Nature of the assay: Western blot of p32 protein level in peptide-treated HUVECs. It counts as cell-based. The note with it: 12 h. A general note: A western blot detects proteins with antibodies after separation by electrophoresis.

The test system of the next assay is CaMKII. Nature of the assay: Western blot of CaMKII phosphorylation in peptide-treated HUVECs. The class given is cell-based, human. Particulars: peptide 10 μM, 12 h.
The subject of a further assay is eNOS. Kind of assay: Western blot of eNOS phosphorylation (Ser1177, Thr495) in peptide-treated HUVECs. The class given is cell-based, human. Particulars: peptide 10 μM, 12 h.
Assay [2] deals with T1, p32 단백질. Kind of assay: Mitochondrial fractionation and immunoblotting of p32 in HUVECs. Particulars: peptide 10 μM, 12 h, mitochondrial fraction. It counts as cell-based.
The target in assay [3] is T1, p32 단백질. Nature of the assay: Co-immunoprecipitation: ubiquitination of p32 in HUVECs. The class given is cell-based. Particulars: peptide 10 μM, 12 h, co-IP with p32 antibody.
A further assay has as its target T2, 알기나제와 p32 단백질의 결합 (Homo sapiens, UniProt Q07021).
T2 construct: YDIQY 펩타이드를 처리한 HUVECs을 RIPA buffer를 이용하여 lysis하고; endogenous in cells; host or cells: HUVECs
T2 sequence (Q07021 74-282): T1 sequence (Q07021 74-282)
Nature of the assay: Co-immunoprecipitation: binding of arginase and p32 in HUVECs. The class given is cell-based. The note with it: peptide 10 μM, 12 h, co-IP with p32 antibody.

For assay [4], the target named is T1, p32 단백질. Nature of the assay: p32 protein level under proteasome inhibition (MG132) in HUVECs, Western blot. The note with it: peptide 10 μM, 12 h. It counts as cell-based.
For assay [5], the system named is ApoE-/-+HCD 생쥐 대동맥. Kind of assay: NO measurement (DAF-FM fluorescence) in aorta of atherosclerosis model mice after i.v. peptide. The class given is in vivo, mouse. Particulars: 0.25 mM/kg i.v. every second day, 5 injections in 10 days.
Assay [6] relates to ApoE-/-+HCD 생쥐 대동맥. Nature of the assay: ROS measurement (DHE fluorescence) in aorta of atherosclerosis model mice after i.v. peptide. It counts as in vivo, mouse. Particulars: 0.25 mM/kg i.v. every second day, 5 injections in 10 days.
In a further assay the test system is ApoE-/-+HCD 생쥐 대동맥 절편. Nature of the assay: Vascular tension measurement of aortic segments of atherosclerosis model mice after i.v. peptide. The class given is in vivo, mouse.
The nature of assay [7]: Tail-cuff blood pressure measurement (CODA) in wild-type mice after i.v. peptide. It counts as in vivo, mouse. Particulars: WT mice, 0.25 mM/kg i.v. once daily, 4day.

“YDIQY: penta-peptide of SEQ ID NO: 1 designed from the arginase/p32 binding site; p32 inhibiting activity (printed: Tyr Asp Ile Gln Tyr)”: the p32 protein level result with p32 단백질 [1] (peptide 10 μM, Western blot) is “감소되었고”. Also, the “cytoplasmic p32 protein level” value in the assay with p32 단백질 [1] (peptide 0.01, 0.1, 1, 10 μM) is given as “농도 의존적으로 감소”. Also, the “CaMKII phosphorylation (activity)” value with CaMKII is listed as “증가하였고”. In the assay on eNOS, the “eNOS Ser1177 (activating site) phosphorylation” value is on record as “증가되었으며” and the “eNOS Thr495 (inactivating site) phosphorylation” value is “감소되는”. Besides, the “mitochondrial p32 protein level” value with p32 단백질 [2] was “유의하게 감소”. In the assay with p32 단백질 [3], the “p32 ubiquitination vs control” value is reported as “증가되어”. Further, the “binding of p32 with arginase vs control” value with 알기나제와 p32 단백질의 결합 was “감소되어있는”. Further, the p32 protein level entry with p32 단백질 [4] (with proteasome inhibitor MG132 10 μM, 24 h) is given as “감소되지 않는”. The p32 protein level result in the assay with p32 단백질 [4] (without MG132) was “감소하였지만”. Further, the “NO production in aorta” value with ApoE-/-+HCD 생쥐 대동맥 [5] was “정상 생쥐 수준만큼 회복”. Besides, the “ROS production in aorta” value in the assay with ApoE-/-+HCD 생쥐 대동맥 [6] is reported as “정상 생쥐 수준만큼 회복”. The “Ach-dependent relaxation of aortic segments” value in the assay with ApoE-/-+HCD 생쥐 대동맥 절편 (ApoE-/-+HCD mice, 0.25 mM/kg i.v. x5, Ach 10-9~10^-5 M) was “정상 생쥐 수준만큼 회복되는”. Also, the “PE-dependent contraction of aortic segments” value with ApoE-/-+HCD 생쥐 대동맥 절편 (ApoE-/-+HCD mice, 0.25 mM/kg i.v. x5, PE 10-9~10^-5 M) was “정상 생쥐 수준만큼 회복하는”. Further, the “KCl contraction of aortic segments” value in the assay with ApoE-/-+HCD 생쥐 대동맥 절편 (four groups compared, KCl 60 mM, 20 min) is “차이가 없음”. Also, the “SNP-dependent (endothelium-independent) relaxation of aortic segments” value with ApoE-/-+HCD 생쥐 대동맥 절편 (four groups compared, SNP 10-10~10^-6 M) is “차이가 없음”. For the same substance, in assay [7], the “수축기 (systolic pressure)” value was “유의하게 감소”, the “이완기 (diastolic pressure)” value is “유의하게 감소” and the “평균 대동맥압 (mean aortic pressure)” value was “유의하게 감소”.
